# Test results taken from the NIST ThermoML archive (doi:10.1016/j.jct.2015.09.006).
# ± gives the expanded uncertainty stated by the source.
# Assay: wn = mass fraction of the nth substance listed
# Settings: 323.15 K, 101.3 kPa, Liquid, Vibrating tube method
compound,measurement,setting,value
[Ca+2].[Cl-].[Cl-] [calcium chloride] + O,mass density,w1 = 0.566,1575.9 ± 24 kg/m3
O=[PH2][O-].O=[PH2][O-].[Ca+2] [calcium hypophosphite] + O,mass density,w1 = 0.1326,1073.2 ± 24 kg/m3
O=[PH2][O-].[Na+] [sodium phosphinate] + O,mass density,w1 = 0.5786,1415.2 ± 24 kg/m3
